Test results: US8445509B2, “Fused heterocyclic derivatives and use thereof” (Takeda Pharmaceutical Company Limited, priority 2008, dated 2013)

Key:
[1] = target: T1, c-Met intracellular domain protein (Homo sapiens, UniProt P08581); test: Hepatocyte growth factor receptor (c-Met) kinase inhibitory activity (AlphaScreen); assay type: biochemical; settings: for inhibition at 1 µM: 1 μM test compound, read-out: inhibitory rate (%) at 1 μM
T1 construct: 2.5 ng/ml of c-Met intracellular domain protein (Millipore); purchased Millipore
T1 sequence (P08581 956-1390 limits assumed): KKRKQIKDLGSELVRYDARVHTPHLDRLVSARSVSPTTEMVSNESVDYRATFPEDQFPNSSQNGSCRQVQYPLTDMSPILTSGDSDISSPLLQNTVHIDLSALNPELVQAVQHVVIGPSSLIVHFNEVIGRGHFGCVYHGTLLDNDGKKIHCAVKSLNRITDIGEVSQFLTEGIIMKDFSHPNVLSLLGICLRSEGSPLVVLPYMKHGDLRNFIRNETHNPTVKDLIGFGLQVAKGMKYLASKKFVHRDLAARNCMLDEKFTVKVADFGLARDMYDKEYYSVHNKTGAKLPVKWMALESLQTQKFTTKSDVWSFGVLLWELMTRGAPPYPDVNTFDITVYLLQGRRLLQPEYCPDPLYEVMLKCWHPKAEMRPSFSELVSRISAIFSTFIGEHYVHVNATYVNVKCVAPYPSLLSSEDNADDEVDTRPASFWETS
Experimental: (§1) A test compound dissolved in dimethyl sulfoxide (DMSO) was diluted with a buffer (50 mM Tris-HCl (pH 7.5), 5 mM MgCl2, 5 mM MnCl2, 2 mM dithiothreitol, 0.01% Tween-20). To this compound solution (5 μL) was added a buffer (10 μL) containing 2.5 ng/ml of c-Met intracellular domain protein (Millipore) and 250 ng/mL of biotin labeled polypeptide biotinyl-poly-Glu:Tyr (4:1) (CIS bio International). […] The reaction solution was allowed to stand at 25° C. for 16 hrs, and the wells were counted using a plate reader (Fusion™ (PerkinElmer)). The kinase inhibitory rate (%) of the test compound was calculated by the following formula: Inhibitory rate (%)=(1−(count of test compound−blank)÷(control−blank))×100
(§2) The count of the solution reacted without addition of the compound was used as a “control”, and the count of the solution without the compound and ATP was used as a “blank”.

[2] = system: Human umbilical vein-derived vascular endothelial cells (HUVEC); test: Vascular endothelial cell proliferation inhibitory test (VEGF-stimulated HUVEC); assay type: cell-based; settings: 120 h, 5 days of culture with VEGF
Method in brief: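 HUVEC (3000 cells/well) in medium with 3% FBS, cultured overnight, then given test substance plus VEGF (120 ng/mL in the added medium). After 5 days at 37 °C, Cell Counting Kit-8 was applied for 2-3 h and A450 read. IC50 relative to no-compound wells, by logistic nonlinear least-squares fit.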

[3] = target: T2, VEGFR2 intracellular domain protein (Homo sapiens, UniProt P35968); test: Vascular endothelial growth factor receptor 2 (VEGFR2) kinase inhibitory activity (AlphaScreen); assay type: biochemical
T2 construct: made in house; host or cells: SF-21 insect cells, recombinant baculovirus BAC-VEGFR2
T2 sequence (P35968 786-1356 limits assumed): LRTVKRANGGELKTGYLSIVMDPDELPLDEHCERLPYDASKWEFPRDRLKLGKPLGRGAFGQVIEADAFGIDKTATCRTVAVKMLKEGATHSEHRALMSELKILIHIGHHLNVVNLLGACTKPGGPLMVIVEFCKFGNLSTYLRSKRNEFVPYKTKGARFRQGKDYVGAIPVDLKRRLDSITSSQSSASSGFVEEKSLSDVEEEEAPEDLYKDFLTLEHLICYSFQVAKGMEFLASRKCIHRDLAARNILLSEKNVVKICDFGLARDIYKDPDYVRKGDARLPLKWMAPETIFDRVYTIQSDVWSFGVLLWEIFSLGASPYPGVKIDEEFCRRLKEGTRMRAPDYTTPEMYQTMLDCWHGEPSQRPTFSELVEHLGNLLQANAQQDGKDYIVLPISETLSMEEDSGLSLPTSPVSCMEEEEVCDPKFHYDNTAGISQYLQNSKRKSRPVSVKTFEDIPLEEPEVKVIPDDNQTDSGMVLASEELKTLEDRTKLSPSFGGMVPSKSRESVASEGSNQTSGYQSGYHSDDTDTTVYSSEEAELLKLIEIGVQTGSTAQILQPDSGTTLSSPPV
Experimental: Human vascular endothelial growth factor receptor 2 (hereinafter to be referred to as VEGFR2) gene was cloned by PCR using cDNA Libraries Human Placenta (Clontech) as a template. […] The primer base sequence is shown below.
SF-21 cells were sown at 1×10^6 cells/mL to Sf-900II SFM medium (1 L, Invitrogen) containing 10% fetal bovine serum (trace), 50 mg/L Gentamicin (Invitrogen) and 0.1% Pluronic F-68 (Invitrogen), and shaking culture was performed using a 2 L volume Erlenmeyer flask at 27° C., 100 rpm. After culturing for 24 hrs, recombinant baculovirus BAC-VEGFR2 (13.4 mL) was added to the mixture, and the mixture was further cultured for 3 days. The culture medium was centrifuged at 2,000 rpm for 5 min to give virus-infected cells. The infected cells were washed with a phosphate buffered saline (Invitrogen), centrifuged under the same conditions, and the cells were preserved at −80° C. The cryopreserved cells were thawed in ice, suspended in buffer A (50 mM Tris buffer (30 mL, pH 7.4) containing 20% glycerol, 0.15 M NaCl) supplemented with Complete Protease Inhibitor (Boehringer), and ruptured 3 times with a Polytron homogenizer (Kinematica) at 20,000 rpm for 30 sec. The ruptured medium was clarified by centrifugation at 40,000 rpm for 30 min and filtered with a 0.45 μm filter. The filtrate was passed through a column packed with Anti-FLAG M2 Affinity Gel (4 mL, Sigma) at a flow rate of about 0.5 mL/min. The column was washed with buffer A, and eluted with buffer A containing 100 μg/mL of FLAG peptide. The eluate was concentrated with Vivaspin 20 (Vivascience) having a molecular weight cut off of 30K. The buffer of this concentrate was exchanged using NAP™ 25 column (Amersham Bioscience) equilibrated with buffer A. The fractions containing intracellular domain protein of VEGFR2 were collected, glycerol was added to the final concentration of 50% and cryopreserved at −80° C.
as §1, with “50 ng/mL” for “2.5 ng/ml”, “VEGFR2” for “c-Met”, “protein” for “protein (Millipore)”
as §2

Structure (SMILES)	IC50 [1]	inhibition at 1 µM [1]	IC50 [3]	IC50 [2]
Cc1ccc(C(=O)Nc2ccc(Oc3ccc4nc(NC(=O)C5CC5)cn4c3)cc2F)[n+]([O-])c1-c1ccc(F)cc1 [Example 84, N-[4-({2-[(cyclopropylcarbonyl)amino]imidazo[1,2-a]pyridin-6-yl}oxy)-2-fluorophenyl]-6-(4-fluorophenyl)-5-methylpyridine-2-carboxamide 1-oxide]	≤ 1 µM	≥ 80%	≤ 1 µM	≤ 2 µM
O=C(Nc1ccc(Oc2ccc3nc(NC(=O)C4CC4)cn3c2)c(F)c1)c1cccn(-c2ccc(F)cc2)c1=O [Example 10, N-[4-({2-[(cyclopropylcarbonyl)amino]imidazo[1,2-a]pyridin-6-yl}oxy)-3-fluorophenyl]-1-(4-fluorophenyl)-2-oxo-1,2-dihydropyridine-3-carboxamide]	≤ 1 µM	≥ 80%	≤ 1 µM	≤ 2 µM
Cc1c(C(=O)Nc2ccc(Oc3ccc4nc(NC(=O)C5CC5)cn4c3)c(F)c2)c(=O)n(-c2ccccc2)n1C [Example 46, N-[4-({2-[(cyclopropylcarbonyl)amino]imidazo[1,2-a]pyridin-6-yl}oxy)-3-fluorophenyl]-1,5-dimethyl-3-oxo-2-phenyl-2,3-dihydro-1H-pyrazole-4-carboxamide]	≤ 1 µM	≥ 80%	≤ 1 µM	≤ 2 µM
Cc1cc(C(=O)Nc2ccc(Oc3ccc4nc(NC(=O)C5CC5)cn4c3)c(F)c2)c(=O)n(-c2ccc(F)cc2)c1 [Example 66, N-[4-({2-[(cyclopropylcarbonyl)amino]imidazo[1,2-a]pyridin-6-yl}oxy)-3-fluorophenyl]-1-(4-fluorophenyl)-5-methyl-2-oxo-1,2-dihydropyridine-3-carboxamide]	≤ 1 µM	≥ 80%	≤ 1 µM	≤ 2 µM

Now from value to compound, other results behind:

IC50 [1]	inhibition at 1 µM [1]	IC50 [3]	Structure (SMILES)	IC50 [2]
≤ 1 µM	≥ 80%	≤ 1 µM	Cc1ccc(C(=O)Nc2ccc(Oc3ccc4nc(NC(=O)C5CC5)cn4c3)c(F)c2)c(=O)n1-c1ccc(F)c(F)c1 [Example 45, N-[4-({2-[(cyclopropylcarbonyl)amino]imidazo[1,2-a]pyridin-6-yl}oxy)-3-fluorophenyl]-1-(3,4-difluorophenyl)-6-methyl-2-oxo-1,2-dihydropyridine-3-carboxamide]	≤ 2 µM
≤ 1 µM	≥ 80%	≤ 1 µM	Cc1ccc(C(=O)Nc2ccc(Oc3ccc4nc(NC(=O)C5CC5)cn4c3)cc2)c(=O)n1-c1ccc(F)cc1 [Example 28, N-[4-({2-[(cyclopropylcarbonyl)amino]imidazo[1,2-a]pyridin-6-yl}oxy)phenyl]-1-(4-fluorophenyl)-6-methyl-2-oxo-1,2-dihydropyridine-3-carboxamide]	≤ 2 µM
≤ 1 µM	≥ 80%	≤ 1 µM	Cc1ccc(C(=O)Nc2ccc(Oc3ccc4nc(NC(=O)C5CC5)cn4c3)c(F)c2)[n+]([O-])c1-c1cccc(F)c1 [Example 93, N-[4-({2-[(cyclopropylcarbonyl)amino]imidazo[1,2-a]pyridin-6-yl}oxy)-3-fluorophenyl]-6-(3-fluorophenyl)-5-methylpyridine-2-carboxamide 1-oxide]	≤ 2 µM
≤ 1 µM	≥ 80%	≤ 1 µM	Cc1c(C(=O)Nc2ccc(Oc3ccc4nc(NC(=O)C5CC5)cn4c3)c(F)c2)c(=O)n(-c2ccc(F)cc2)n1C [Example 77, N-[4-({2-[(cyclopropylcarbonyl)amino]imidazo[1,2-a]pyridin-6-yl}oxy)-3-fluorophenyl]-2-(4-fluorophenyl)-1,5-dimethyl-3-oxo-2,3-dihydro-1H-pyrazole-4-carboxamide]	≤ 2 µM
≤ 1 µM	≥ 80%	≤ 1 µM	Cc1cc(C)n(-c2ccc(F)cc2)c(=O)c1C(=O)Nc1ccc(Oc2ccc3nc(NC(=O)C4CC4)cn3c2)c(F)c1 [Example 82, N-[4-({2-[(cyclopropylcarbonyl)amino]imidazo[1,2-a]pyridin-6-yl}oxy)-3-fluorophenyl]-1-(4-fluorophenyl)-4,6-dimethyl-2-oxo-1,2-dihydropyridine-3-carboxamide]	≤ 2 µM
≤ 1 µM	≥ 80%	≤ 1 µM	Cc1ccc(C(=O)Nc2ccc(Oc3ccc4nc(NC(=O)C5CC5)cn4c3)c(F)c2)[n+]([O-])c1-c1ccc(F)cc1 [Example 29, N-[4-({2-[(cyclopropylcarbonyl)amino]imidazo[1,2-a]pyridin-6-yl}oxy)-3-fluorophenyl]-6-(4-fluorophenyl)-5-methylpyridine-2-carboxamide 1-oxide]	≤ 2 µM
